Measurements reported in US20260007681A1, “INDOLE DERIVATIVES AS ESTROGEN RECEPTOR DEGRADERS” (REGENTS OF THE UNIVERSITY OF MICHIGAN, priority 2022, published 2026).

molecular target: ER (Homo sapiens (Human), UniProt P03372); experiment: Western blot analysis (Compounds B1-B278); format: cell-based; conditions: ER degradation by traditional Western blot; DC50 classes
Outline: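 Compound-treated cells were lysed in RIPA buffer (Tris.HCl pH 7.6, 1% NP-40, deoxycholate, 0.1% SDS) with protease inhibitors; equal protein was resolved on 10% SDS-PAGE, transferred to PVDF and immunoblotted. Band intensities were quantified and normalized to GAPDH.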

Chain of ER (P03372 whole entry): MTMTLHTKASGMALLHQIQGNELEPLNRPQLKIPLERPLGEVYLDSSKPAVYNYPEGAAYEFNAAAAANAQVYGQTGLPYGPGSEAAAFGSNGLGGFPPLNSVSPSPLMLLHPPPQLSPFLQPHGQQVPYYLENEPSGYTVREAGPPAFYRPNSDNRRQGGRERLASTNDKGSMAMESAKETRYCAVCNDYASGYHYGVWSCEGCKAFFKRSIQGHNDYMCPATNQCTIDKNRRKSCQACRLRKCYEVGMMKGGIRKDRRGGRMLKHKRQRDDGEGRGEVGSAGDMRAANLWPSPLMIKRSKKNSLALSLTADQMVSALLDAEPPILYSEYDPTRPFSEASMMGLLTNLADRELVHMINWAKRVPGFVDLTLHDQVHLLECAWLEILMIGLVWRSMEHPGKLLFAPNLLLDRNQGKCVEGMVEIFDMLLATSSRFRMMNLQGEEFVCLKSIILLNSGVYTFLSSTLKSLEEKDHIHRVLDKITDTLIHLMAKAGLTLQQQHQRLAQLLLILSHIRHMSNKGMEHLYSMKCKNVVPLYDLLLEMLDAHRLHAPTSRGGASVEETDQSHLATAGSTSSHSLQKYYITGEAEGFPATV

Structure (SMILES) | Traditional Western Degradation Potency
C[C@@H]1Cc2c([nH]c3ccccc23)[C@@H](c2c(F)cc(N3CCC4(CC3)CN(C(=O)CN3Cc5cc6c(cc5C3)C(=O)N(C3CCC(=O)NC3=O)C6=O)C4)cc2F)N1CC(F)F (stereo partly drawn) [Compound B51, 6-(2-(7-(4-((1R,3R)-2-(2,2-difluoroethyl)-3-methyl-2,3,4,9-tetrahydro-1H-pyrido[3,4-b]indol-1-yl)-3,5-difluorophenyl)-2,7-diazaspiro[3.5]nonan-2-yl)-2-oxoethyl)-2-(2,6-dioxopiperidin-3-yl)-6,7-dihydropyrrolo[3,4-f]isoindole-1,3(2H,5H)-dione] | A (“A”: <10 nM)
C[C@@H]1Cc2c([nH]c3ccccc23)[C@@H](c2c(F)cc(N3CCC4(CCN(C(=O)CN5Cc6cc7c(cc6C5)C(=O)N(C5CCC(=O)NC5=O)C7=O)CC4)CC3)cc2F)N1CC(F)F (stereo partly drawn) [Compound B52, 6-(2-(9-(4-((1R,3R)-2-(2,2-difluoroethyl)-3-methyl-2,3,4,9-tetrahydro-1H-pyrido[3,4-b]indol-1-yl)-3,5-difluorophenyl)-3,9-diazaspiro[5.5]undecan-3-yl)-2-oxoethyl)-2-(2,6-dioxopiperidin-3-yl)-6,7-dihydropyrrolo[3,4-f]isoindole-1,3(2H,5H)-dione] | A (“A”: <10 nM)
C[C@@H]1Cc2c([nH]c3ccccc23)[C@@H](c2c(F)cc(N3CCC(C(=O)N4CCC(CN5Cc6cc7c(cc6C5)C(=O)N(C5CCC(=O)NC5=O)C7=O)CC4)CC3)cc2F)N1CC(F)F (stereo partly drawn) [Compound B53, 6-((1-(1-(4-((1R,3R)-2-(2,2-difluoroethyl)-3-methyl-2,3,4,9-tetrahydro-1H-pyrido[3,4-b]indol-1-yl)-3,5-difluorophenyl)piperidine-4-carbonyl)piperidin-4-yl)methyl)-2-(2,6-dioxopiperidin-3-yl)-6,7-dihydropyrrolo[3,4-f]isoindole-1,3(2H,5H)-dione] | B (“B”: 10-100 nM)
C[C@@H]1Cc2c([nH]c3ccccc23)[C@@H](c2c(F)cc(N3CCC(C(=O)N4CCC(N5Cc6cc7c(cc6C5)C(=O)N(C5CCC(=O)NC5=O)C7=O)CC4)CC3)cc2F)N1CC(F)F (stereo partly drawn) [Compound B54, 6-(1-(1-(4-((1R,3R)-2-(2,2-difluoroethyl)-3-methyl-2,3,4,9-tetrahydro-1H-pyrido[3,4-b]indol-1-yl)-3,5-difluorophenyl)piperidine-4-carbonyl)piperidin-4-yl)-2-(2,6-dioxopiperidin-3-yl)-6,7-dihydropyrrolo[3,4-f]isoindole-1,3(2H,5H)-dione] | A (“A”: <10 nM)
C[C@@H]1Cc2c([nH]c3ccccc23)[C@@H](c2c(F)cc(N3CC4(CC(C(=O)N5CCC(CN6Cc7cc8c(cc7C6)C(=O)N(C6CCC(=O)NC6=O)C8=O)CC5)C4)C3)cc2F)N1CC(F)F (stereo partly drawn) [Compound B55, 6-((1-(2-(4-((1R,3R)-2-(2,2-difluoroethyl)-3-methyl-2,3,4,9-tetrahydro-1H-pyrido[3,4-b]indol-1-yl)-3,5-difluorophenyl)-2-azaspiro[3.3]heptane-6-carbonyl)piperidin-4-yl)methyl)-2-(2,6-dioxopiperidin-3-yl)-6,7-dihydropyrrolo[3,4-f]isoindole-1,3(2H,5H)-dione] | A (“A”: <10 nM)
C[C@@H]1Cc2c([nH]c3ccccc23)[C@@H](c2c(F)cc(N3CC4(CC(C(=O)N5CCC(N6Cc7cc8c(cc7C6)C(=O)N(C6CCC(=O)NC6=O)C8=O)CC5)C4)C3)cc2F)N1CC(F)F (stereo partly drawn) [Compound B56, 6-(1-(2-(4-((1R,3R)-2-(2,2-difluoroethyl)-3-methyl-2,3,4,9-tetrahydro-1H-pyrido[3,4-b]indol-1-yl)-3,5-difluorophenyl)-2-azaspiro[3.3]heptane-6-carbonyl)piperidin-4-yl)-2-(2,6-dioxopiperidin-3-yl)-6,7-dihydropyrrolo[3,4-f]isoindole-1,3(2H,5H)-dione] | A (“A”: <10 nM)
C[C@@H]1Cc2c([nH]c3ccccc23)[C@@H](c2c(F)cc(N3CCC(N4CC(CN5Cc6cc7c(cc6C5)C(=O)N(C5CCC(=O)NC5=O)C7=O)C4)CC3)cc2F)N1CC(F)F (stereo partly drawn) [Compound B57, 6-((1-(1-(4-((1R,3R)-2-(2,2-difluoroethyl)-3-methyl-2,3,4,9-tetrahydro-1H-pyrido[3,4-b]indol-1-yl)-3,5-difluorophenyl)piperidin-4-yl)azetidin-3-yl)methyl)-2-(2,6-dioxopiperidin-3-yl)-6,7-dihydropyrrolo[3,4-f]isoindole-1,3(2H,5H)-dione] | B (“B”: 10-100 nM)
C[C@@H]1Cc2c([nH]c3ccccc23)[C@@H](c2c(F)cc(N3CCC(N4CCC(CN5Cc6cc7c(cc6C5)C(=O)N(C5CCC(=O)NC5=O)C7=O)CC4)CC3)cc2F)N1CC(F)F (stereo partly drawn) [Compound B58, 6-((1′-(4-((1R,3R)-2-(2,2-difluoroethyl)-3-methyl-2,3,4,9-tetrahydro-1H-pyrido[3,4-b]indol-1-yl)-3,5-difluorophenyl)-[1,4′-bipiperidin]-4-yl)methyl)-2-(2,6-dioxopiperidin-3-yl)-6,7-dihydropyrrolo[3,4-f]isoindole-1,3(2H,5H)-dione] | C (“C”: >100 nM)
C[C@@H]1Cc2c([nH]c3ccccc23)[C@@H](c2c(F)cc(N3CCC(N4CC(C(=O)N5Cc6cc7c(cc6C5)C(=O)N(C5CCC(=O)NC5=O)C7=O)C4)CC3)cc2F)N1CC(F)F (stereo partly drawn) [Compound B59, 6-(1-(1-(4-((1R,3R)-2-(2,2-difluoroethyl)-3-methyl-2,3,4,9-tetrahydro-1H-pyrido[3,4-b]indol-1-yl)-3,5-difluorophenyl)piperidin-4-yl)azetidine-3-carbonyl)-2-(2,6-dioxopiperidin-3-yl)-6,7-dihydropyrrolo[3,4-f]isoindole-1,3(2H,5H)-dione] | C (“C”: >100 nM)
C[C@@H]1Cc2c([nH]c3ccccc23)[C@@H](c2c(F)cc(N3CCC(N4CC(C(=O)N5Cc6cc7c(cc6C5)C(=O)N(C5CCC(=O)NC5=O)C7)C4)CC3)cc2F)N1CC(F)F (stereo partly drawn) [Compound B60, 3-(6-(1-(1-(4-((1R,3R)-2-(2,2-difluoroethyl)-3-methyl-2,3,4,9-tetrahydro-1H-pyrido[3,4-b]indol-1-yl)-3,5-difluorophenyl)piperidin-4-yl)azetidine-3-carbonyl)-1-oxo-3,5,6,7-tetrahydropyrrolo[3,4-f]isoindol-2(1H)-yl)piperidine-2,6-dione] | B (“B”: 10-100 nM)
C[C@@H]1Cc2c([nH]c3ccccc23)[C@@H](c2c(F)cc(N3CC(C(=O)N4CCC(CN5Cc6cc7c(cc6C5)C(=O)N(C5CCC(=O)NC5=O)C7=O)CC4)C3)cc2F)N1CC(F)F (stereo partly drawn) [Compound B61, 6-((1-(1-(4-((1R,3R)-2-(2,2-difluoroethyl)-3-methyl-2,3,4,9-tetrahydro-1H-pyrido[3,4-b]indol-1-yl)-3,5-difluorophenyl)azetidine-3-carbonyl)piperidin-4-yl)methyl)-2-(2,6-dioxopiperidin-3-yl)-6,7-dihydropyrrolo[3,4-f]isoindole-1,3(2H,5H)-dione] | A (“A”: <10 nM)
C[C@@H]1Cc2c([nH]c3ccccc23)[C@@H](c2c(F)cc(N3CC(C(=O)N4CCC(N5Cc6cc7c(cc6C5)C(=O)N(C5CCC(=O)NC5=O)C7=O)CC4)C3)cc2F)N1CC(F)F (stereo partly drawn) [Compound B62, 6-(1-(1-(4-((1R,3R)-2-(2,2-difluoroethyl)-3-methyl-2,3,4,9-tetrahydro-1H-pyrido[3,4-b]indol-1-yl)-3,5-difluorophenyl)azetidine-3-carbonyl)piperidin-4-yl)-2-(2,6-dioxopiperidin-3-yl)-6,7-dihydropyrrolo[3,4-f]isoindole-1,3(2H,5H)-dione] | A (“A”: <10 nM)
C[C@@H]1Cc2c([nH]c3ccccc23)[C@@H](c2c(F)cc(N3CCC(CN4CC(N5Cc6cc7c(cc6C5)C(=O)N(C5CCC(=O)NC5=O)C7=O)C4)CC3)cc2F)N1CC(F)F (stereo partly drawn) [Compound B63, 6-(1-((1-(4-((1R,3R)-2-(2,2-difluoroethyl)-3-methyl-2,3,4,9-tetrahydro-1H-pyrido[3,4-b]indol-1-yl)-3,5-difluorophenyl)piperidin-4-yl)methyl)azetidin-3-yl)-2-(2,6-dioxopiperidin-3-yl)-6,7-dihydropyrrolo[3,4-f]isoindole-1,3(2H,5H)-dione] | B (“B”: 10-100 nM)
C[C@@H]1Cc2c([nH]c3ccccc23)[C@@H](c2c(F)cc(N3CCC(N4CCC(CN5Cc6cc7c(cc6C5)C(=O)N(C5CCC(=O)NC5=O)C7=O)CC4)C3)cc2F)N1CC(F)F (stereo partly drawn) [Compound B64, 6-((1-(1-(4-((1R,3R)-2-(2,2-difluoroethyl)-3-methyl-2,3,4,9-tetrahydro-1H-pyrido[3,4-b]indol-1-yl)-3,5-difluorophenyl)pyrrolidin-3-yl)piperidin-4-yl)methyl)-2-(2,6-dioxopiperidin-3-yl)-6,7-dihydropyrrolo[3,4-f]isoindole-1,3(2H,5H)-dione] | C (“C”: >100 nM)
C[C@@H]1Cc2c([nH]c3ccccc23)[C@@H](c2c(F)cc(N3CCC(CN4CCC(CN5Cc6cc7c(cc6C5)C(=O)N(C5CCC(=O)NC5=O)C7=O)CC4)CC3)cc2F)N1CC(F)F (stereo partly drawn) [Compound B65, 6-((1-((1-(4-((1R,3R)-2-(2,2-difluoroethyl)-3-methyl-2,3,4,9-tetrahydro-1H-pyrido[3,4-b]indol-1-yl)-3,5-difluorophenyl)piperidin-4-yl)methyl)piperidin-4-yl)methyl)-2-(2,6-dioxopiperidin-3-yl)-6,7-dihydropyrrolo[3,4-f]isoindole-1,3(2H,5H)-dione] | A (“A”: <10 nM)
C[C@@H]1Cc2c([nH]c3ccccc23)[C@@H](c2c(F)cc(N3CCC(CN4CCC(N5Cc6cc7c(cc6C5)C(=O)N(C5CCC(=O)NC5=O)C7=O)C4)CC3)cc2F)N1CC(F)F (stereo partly drawn) [Compound B66, 6-(1-((1-(4-((1R,3R)-2-(2,2-difluoroethyl)-3-methyl-2,3,4,9-tetrahydro-1H-pyrido[3,4-b]indol-1-yl)-3,5-difluorophenyl)piperidin-4-yl)methyl)pyrrolidin-3-yl)-2-(2,6-dioxopiperidin-3-yl)-6,7-dihydropyrrolo[3,4-f]isoindole-1,3(2H,5H)-dione] | A (“A”: <10 nM)
